Experimental data published in patent US10669268B2, “Bicyclic derivatives” (Hoffmann-La Roche Inc., priority 2012, dated 2020).

Biological target: ATX (human His-tagged) (Homo sapiens (Human), UniProt Q13822)
Assay: Human ATX enzyme inhibition assay (fluorescence quenching, MR121 substrate)
Type: biochemical
Conditions: 30 nM ATX, 1 μM MR121 substrate, 30° C., pH 8.0
Procedure, shortened: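 Tris-HCl buffer at pH 8.0 contained 140 mM NaCl, 5 mM KCl, 1 mM each CaCl2 and MgCl2, and 0.01% Triton X-100. The MR121 substrate (1 μM final) was incubated with enzyme for 15 min at 30 °C, and activity was read by fluorescence quenching.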

Row | Compound | IC50 [nM]
1 | COc1cc(C(=O)N2C[C@@H]3CN(C(=O)c4ccc5[nH]nnc5c4)C[C@H]3C2)cc2ccccc12 [Example 19.07, (1H-benzotriazol-5-yl)-[(3aS,6aS)-5-(4-methoxy-naphthalene-2-carbonyl)-hexahydro-pyrrolo[3,4-c]pyrrol-2-yl]-methanone] | 24
2 | COc1cc(C(=O)N2C[C@H]3CN(C(=O)c4ccc5[nH]nnc5c4)C[C@@H]3C2)cc2ccccc12 [Example 19.15, (1H-benzotriazol-5-yl)-[(3aR,6aR)-5-(4-methoxy-naphthalene-2-carbonyl)-hexahydro-pyrrolo[3,4-c]pyrrol-2-yl]-methanone] | 20
3 | O=C(/C=C/c1ccc(OC(F)(F)F)cc1)N1C[C@@H]2CN(C(=O)c3ccc4[nH]nnc4c3)C[C@@H]2C1 [Example 15, (E)-1-((3aR,6aS)-5-(1H-Benzo[d][1,2,3]triazole-5-carbonyl)hexahydropyrrolo[3,4-c]pyrrol-2(1H)-yl)-3-(4-(trifluoromethoxy)phenyl)prop-2-en-1-one] | 26
4 | COc1ccc(CCC(=O)N2CC[C@@H]3CN(C(=O)c4ccc5[nH]nnc5c4)C[C@@H]3CC2)cc1F [Example 17.07, 1-((3aR,8aS)-2-(1H-benzo[d][1,2,3]triazole-5-carbonyl)octahydropyrrolo[3,4-d]azepin-6(7H)-yl)-3-(3-fluoro-4-methoxyphenyl)propan-1-one] | 43
5 | O=C(CCc1ccccc1)N1C[C@@H]2CN(C(=O)c3ccc4[nH]nnc4c3)C[C@H]2C1 [Example 15.57] | 494
6 | O=C(/C=C/c1ccc(F)cc1C(F)(F)F)N1CC[C@@H]2CN(C(=O)c3ccc4[nH]nnc4c3)C[C@@H]2CC1 [Example 15.66, (E)-1-((3aR,8aS)-2-(1H-benzo[d][1,2,3]triazole-5-carbonyl)octahydro-pyrrolo[3,4-d]azepin-6(7H)-yl)-3-(4-fluoro-2-(trifluoromethyl)phenyl)-prop-2-en-1-one] | 13

Continued by falling IC50, values first:

Row | IC50 [nM] | Compound
7 | 273 | O=C(COc1ccccc1C1CCCO1)N1C[C@@H]2CN(C(=O)c3ccc4[nH]nnc4c3)C[C@H]2C1 (stereo partly drawn) [Example 19.14, 1-[(3aS,6aS)-5-(1H-benzotriazole-5-carbonyl)-hexahydro-pyrrolo[3,4-c]pyrrol-2-yl]-2-[2-(tetrahydro-furan-2-yl)-phenoxy]-ethanone]
8 | 135 | O=C(/C=C/c1ccc(-c2ccncc2)cc1)N1C[C@@H]2CN(C(=O)c3ccc4[nH]nnc4c3)C[C@H]2C1 [Example 15.79, (E)-1-[(3aR,6aR)-5-(1H-benzotriazole-5-carbonyl)-hexahydro-pyrrolo[3,4-c]pyrrol-2-yl]-3-(4-pyridin-4-yl-phenyl)-prop-2-en-1-one]
9 | 44 | O=C(/C=C/c1ccc(OC(F)(F)F)cc1)N1C[C@H]2CCN(C(=O)c3ccc4[nH]nnc4c3)C[C@@H]2C1 (single isomer, unassigned) [Example 15.25]
10 | 13 | O=C(c1ccc2[nH]nnc2c1)N1C[C@H]2CN(C(=O)c3cc4ccc(OC(F)(F)F)cc4[nH]3)C[C@@H]2C1 [Example 15.98]
11 | 13 | N#Cc1ccc(/C=C/C(=O)N2CC[C@@H]3CN(C(=O)c4ccc5[nH]nnc5c4)C[C@@H]3CC2)cc1 [Example 15.11]
12 | 8 | CCOc1cc(Cl)c(F)cc1COC(=O)N1C[C@@H]2CN(C(=O)c3ccc4[nH]nnc4c3)C[C@H]2C1 [Example 4.67, (3aS,6aS)-5-(1H-benzotriazole-5-carbonyl)-hexahydro-pyrrolo[3,4-c]pyrrole-2-carboxylic acid 4-chloro-2-ethoxy-5-fluoro-benzyl ester]
13 | 5 | Cc1cc(COC(=O)N2C[C@@H]3CN(C(=O)c4ccc5[nH]nnc5c4)C[C@H]3C2)c(C(C)C)cc1C#N [Example 4.53, (3aS,6aS)-5-(1H-benzotriazole-5-carbonyl)-hexahydro-pyrrolo[3,4-c]pyrrole-2-carboxylic acid 4-cyano-2-isopropyl-5-methyl-benzyl ester]
